Measured values reported in patent US9393221B2, “Methods and compounds for reducing intracellular lipid storage” (THE GENERAL HOSPITAL CORPORATION, priority 2011, dated 2016).
Structures can show the parent of a compound that is named as a salt.

System: ATGL-KO iPSCs
Test: High throughput iPSC chemical screening, Oil Red O (ORO) lipid accumulation; further: test concentration or dose not given here
Assay type: cell-based, mouse
Conditions: normalized ORO level vs DMSO-treated cells; compound present during 7 days differentiation, 96-well; negative = decrease in lipid accumulation

| SMILES | Z-score |
| --- | --- |
| Cc1cc(C(=O)NNCc2ccccc2)no1 [Isocarboxazid] | 1.91 |
| Clc1ccc(C(Cn2ccnc2)OCc2c(Cl)cccc2Cl)c(Cl)c1 (centres unmarked) [Isoconazole] | −1.2562 |
| COc1ccc2c(c1O)-c1c(OC)c(OC)cc3c1[C@H](C2)N(C)CC3 [Isocorydine (+)] | −0.7668 |
| CC(=O)OCC(=O)[C@@]1(O)CC[C@H]2[C@@H]3CCC4=CC(=O)C=C[C@]4(C)[C@@]3(F)[C@@H](O)C[C@@]21C [Isoflupredone acetate] | 1.55 |
| CNC(C)CCC=C(C)C.CNC(C)CCC=C(C)C.O=C(O)[C@@H](O)[C@H](O)[C@H](O)[C@@H](O)C(=O)O [Isometheptene mucate] | 0.6197 |
| NNC(=O)c1ccncc1 [Isoniazid] | 0.9473 |
| CC(C)[N+](C)(CCC(C(N)=O)(c1ccccc1)c1ccccc1)C(C)C [Isopropamide iodide] | −0.2928 |
| Cc1c(NC(C)C)c(=O)n(-c2ccccc2)n1C.Cl [Isopyrin hydrochloride] | 0.0325 |
| CC1=C(/C=C/C(C)=C/C=C/C(C)=C\C(=O)O)C(C)(C)CCC1 [Isotretinoin] | −1.1597 |
| Cc1cc(NC(=O)C2=C(O)c3ccccc3S(=O)(=O)N2C)no1 [Isoxicam] | −0.7646 |
| CC(COc1ccccc1)NC(C)C(O)c1ccc(O)cc1 (centres unmarked) [Isoxsuprine hydrochloride] | 0.3014 |
| COC(=O)C1=C(C)NC(C)=C(C(=O)OC(C)C)C1c1cccc2nonc12 (centres unmarked) [Isradipine] | 0.2737 |
| CC[C@H](C)[C@H]1O[C@]2(CC[C@@H]1C)C[C@@H]1C[C@@H](C/C=C(\C)[C@@H](O[C@H]3C[C@H](OC)[C@@H](O[C@H]4C[C@H](OC)[C@@H](O)[C@H](C)O4)[C@H](C)O3)[C@@H](C)/C=C/C=C3\CO[C@@H]4[C@H](O)C(C)=C[C@@H](C(=O)O1)[C@]34O)O2 [Ivermectin] | 0.9419 |
| CO[C@@H]1[C@@H](O[C@@H]2O[C@H](C)[C@@H](O[C@H]3C[C@@](C)(O)[C@@H](OC(=O)CC(C)C)[C@H](C)O3)[C@H](N(C)C)[C@H]2O)[C@@H](CC=O)C[C@@H](C)[C@@H](O)/C=C/C=C/C[C@@H](C)OC(=O)C[C@H]1OC(C)=O [Josamycin] | −0.5964 |
| O=c1c(O)c(-c2ccc(O)cc2)oc2cc(O)cc(O)c12 [Kaempferol] | −0.0374 |
| NC[C@H]1O[C@H](O[C@H]2[C@H](O)[C@@H](O[C@H]3O[C@H](CO)[C@@H](O)[C@H](N)[C@H]3O)[C@H](N)C[C@@H]2N)[C@H](O)[C@@H](O)[C@@H]1O.O=S(=O)(O)O [Kanamycin A sulfate] | 2.436 |
| CCN1C[C@]2(C)CC[C@H](O)[C@]34C1[C@@H](C[C@H]23)[C@@]1(O)C[C@H](OC)[C@H]2C[C@@H]4[C@@H]1[C@H]2O [Karakoline] | −1.4178 |
| COC1=CC(=O)O[C@@H](/C=C/c2ccccc2)C1 [Kawain] | −0.5048 |
| CC(=O)N1CCN(c2ccc(OCC3COC(Cn4ccnc4)(c4ccc(Cl)cc4Cl)O3)cc2)CC1 (centres unmarked) [Ketoconazole] | 1.224 |
| CC(C(=O)O)c1cccc(C(=O)c2ccccc2)c1 (centres unmarked) [Ketoprofen] | −0.219 |
| O=C(c1ccccc1)c1ccc2n1CCC2C(=O)O (centres unmarked) [Ketorolac tromethamine] | −0.8373 |
| CN1CCC(=C2c3ccccc3CC(=O)c3sccc32)CC1 [Ketotifen fumarate] | 0.5681 |
| COc1c2occc2c(OC)c2c(=O)cc(C)oc12 [Khellin] | −0.1533 |

| SMILES | Z-score |
| --- | --- |
| Cl.OC1CCCCC1N1CCC(c2ccccc2)CC1 (stereo not drawn) [L(−)-vesamicol hydrochloride] | −1.6146 |
| CC(CCc1ccccc1)NCC(O)c1ccc(O)c(C(N)=O)c1 (centres unmarked) [Labetalol hydrochloride] | −1.5017 |
| O=C(O)[C@H](O)[C@@H](O)[C@H](O[C@@H]1O[C@H](CO)[C@H](O)[C@H](O)[C@H]1O)[C@H](O)CO [Lactobionic acid] | −0.5092 |
| CC(=O)O[C@H]1C[C@H](O[C@H]2[C@@H](O)C[C@H](O[C@H]3[C@@H](O)C[C@H](O[C@H]4CC[C@@]5(C)[C@H](CC[C@@H]6[C@@H]5C[C@@H](O)[C@]5(C)[C@@H](C7=CC(=O)OC7)CC[C@]65O)C4)O[C@@H]3C)O[C@@H]2C)O[C@H](C)[C@H]1O[C@@H]1O[C@H](CO)[C@@H](O)[C@H](O)[C@H]1O [Lanatoside C] | −1.0291 |
| Cc1c(OCC(F)(F)F)ccnc1C[S+]([O-])c1nc2ccccc2[nH]1 (centres unmarked) [Lansoprazole] | −0.4696 |
| CC[C@@H](C(=O)[C@@H](C)[C@@H](O)[C@H](C)CCc1ccc(C)c(O)c1C(=O)O)[C@H]1O[C@](CC)([C@H]2CC[C@](O)(CC)[C@H](C)O2)C[C@@H]1C [Lasalocid sodium salt] | 9.898 |
| Cc1oncc1C(=O)Nc1ccc(C(F)(F)F)cc1 [Leflunomide] | 1.258 |
| N#Cc1ccc(C(c2ccc(C#N)cc2)n2cncn2)cc1 [Letrozole] | 0.6693 |
| CC1=CC(=O)C2=C(C)CC[C@@H]3[C@H](OC(=O)[C@H]3C)[C@@H]12 [Leucomisine] | −0.2458 |
| c1ccc([C@H]2CN3CCSC3=N2)cc1 [Levamisole hydrochloride] | −0.8539 |
| C[C@@H]1CN([C@H]2CC[C@](C#N)(c3ccc(F)cc3)CC2)CC[C@]1(C(=O)O)c1ccccc1 [Levocabastine hydrochloride] | 1.078 |
| N[C@@H](Cc1ccc(O)c(O)c1)C(=O)O [Levodopa] | −0.1655 |
| C[C@H](N)[C@H](O)c1ccc(O)c(O)c1 [Levonordefrin] | −0.1555 |
| CCC(=O)O[C@@](Cc1ccccc1)(c1ccccc1)[C@@H](C)CN(C)C [Levopropoxyphene napsylate] | −1.0896 |
| CCN(CC)CC(=O)Nc1c(C)cccc1C.Cl [LidocaOne hydrochloride] | −0.9429 |
| Cc1cccc(C)c1NC(=O)CN1CCN(CCCC(c2ccc(F)cc2)c2ccc(F)cc2)CC1 [Lidoflazine] | 1.42 |
| CCC[C@@H]1C[C@@H](C(=O)N[C@@H]([C@H]2O[C@H](SC)[C@H](O)[C@@H](O)[C@H]2O)[C@@H](C)O)N(C)C1 [Lincomycin hydrochloride] | 0.696 |
| N[C@@H](Cc1cc(I)c(Oc2ccc(O)c(I)c2)c(I)c1)C(=O)O [Liothyronine] | 0.1954 |
| NCCCC[C@H](N[C@@H](CCc1ccccc1)C(=O)O)C(=O)N1CCC[C@H]1C(=O)O [Lisinopril] | 0.5403 |
| CCN(CC)C(=O)N[C@H]1C=C2c3cccc4[nH]cc(c34)C[C@H]2N(C)C1 [Lisuride (S)(−)] | −0.7927 |
| C[C@H](CCC(=O)O)[C@H]1CC[C@H]2[C@@H]3CC[C@@H]4C[C@H](O)CC[C@]4(C)[C@H]3CC[C@]12C [Lithocholic acid] | 0.8022 |
| CN1[C@@H](C[C@@H](O)c2ccccc2)CCC[C@H]1C[C@H](O)c1ccccc1.Cl [Lobelanidine hydrochloride] | −0.6306 |
| CN1[C@@H](CC(=O)c2ccccc2)CCC[C@H]1C[C@H](O)c1ccccc1.Cl [Lobeline alpha (−) hydrochoride] | −0.5438 |

| SMILES | Z-score |
| --- | --- |
| CCn1cc(C(=O)O)c(=O)c2cc(F)c(N3CCNC(C)C3)c(F)c21 (centres unmarked) [Lomefloxacin hydrochloride] | 0.00477 |
| CN(C)C(=O)C(CCN1CCC(O)(c2ccc(Cl)cc2)CC1)(c1ccccc1)c1ccccc1 [Loperamide hydrochloride] | −0.1814 |
| N[C@@H](C(=O)N[C@@H]1C(=O)N2C(C(=O)O)=C(Cl)CC[C@H]12)c1ccccc1 [Loracarbef] | 0.6457 |
| CCCCCN(CCCCC)C(=O)C(CCC(=O)O)NC(=O)c1ccc(Cl)c(Cl)c1 (centres unmarked) [Lorglumide sodium salt] | −1.7664 |
| CC[C@H](C)C(=O)O[C@H]1C[C@@H](C)C=C2C=C[C@H](C)[C@H](CC[C@@H]3C[C@@H](O)CC(=O)O3)[C@H]21 [Lovastatin] | 6.935 |
| CN1CCN(C2=Nc3ccccc3Oc3ccc(Cl)cc32)CC1 [Loxapine succinate] | −0.6976 |
| COC1=C[C@@H]2C3=C([C@@H]2C1=O)[C@@H](NC(C)=O)CCc1cc(OC)c(OC)c(OC)c13 [Lumicolchicine gamma] | 0.6596 |
| O=c1cc(-c2ccc(O)c(O)c2)oc2cc(O)cc(O)c12 [Luteolin] | −1.0098 |
| CN(C)[C@@H]1C(O)=C(C(=O)NCNCCCC[C@H](N)C(=O)O)C(=O)[C@@]2(O)C(O)=C3C(=O)c4c(O)cccc4[C@@](C)(O)[C@H]3C[C@@H]12 [Lymecycline] | −1.3365 |
| C#C[C@]1(O)CC[C@H]2[C@@H]3CCC4=CCCC[C@@H]4[C@H]3CC[C@@]21C [Lynestrenol] | −1.3181 |
| CN1C[C@H](CO)C=C2c3cccc4[nH]cc(c34)C[C@H]21 [Lysergol] | −0.3809 |
| NCc1ccc(S(N)(=O)=O)cc1 [Mafenide hydrochloride] | 0.8468 |
| CNCCCC12CCC(c3ccccc31)c1ccccc12 [Maprotiline hydrochloride] | 0.03741 |
| COC(=O)Nc1nc2ccc(C(=O)c3ccccc3)cc2[nH]1 [Mebendazole] | 49.935 |
| CCN(CCCCOC(=O)c1ccc(OC)c(OC)c1)C(C)Cc1ccc(OC)cc1 (centres unmarked) [Mebeverine hydrochloride] | 0.1096 |
| CN1CCc2c(c3ccccc3n2Cc2ccccc2)C1.O=S(=O)(O)c1cccc2c(S(=O)(=O)O)cccc12 [Mebhydroline 1,5-naphtalenedisulfonate] | 0.4999 |
| CNC1(C)C2CCC(C2)C1(C)C (centres unmarked) [Mecamylamine hydrochloride] | 2.563 |
| C=C1c2c(Cl)ccc(O)c2C(=O)C2=C(O)[C@]3(O)C(=O)C(C(N)=O)=C(O)[C@@H](N(C)C)[C@@H]3[C@@H](O)[C@H]12.O=C(O)c1cc(S(=O)(=O)O)ccc1O [Meclocycline sulfosalicylate] | 8.326 |
| CN(C)CCOC(=O)COc1ccc(Cl)cc1 [Meclofenoxate hydrochloride] | 0.4945 |
| Cc1cccc(CN2CCN(C(c3ccccc3)c3ccc(Cl)cc3)CC2)c1 (centres unmarked) [Meclozine dihydrochloride] | 1.227 |
| CC(=O)[C@H]1CC[C@H]2[C@@H]3C[C@H](C)C4=CC(=O)CC[C@]4(C)[C@H]3[C@@H](O)C[C@]12C [Medrysone] | −0.1611 |
| Cc1cccc(Nc2ccccc2C(=O)O)c1C [Mefenamic acid] | −0.2407 |
